Literature values, collected in patent US11980701B2, “Joint implant with constant and continuous release of therapeutic agent” (Diffusion RX, Inc., priority 2021, dated 2024).

Key:
[1] = tested on: articular joint pain/inflammation; conditions: known treatments
[2] = tested on: cartilage; conditions: at low doses

SMILES	length of effectiveness (FIG. 5A) [1]	cartilage effect in in vivo studies [2]
C[C@]12CCC(=O)C=C1CC[C@@H]1[C@@H]2C(=O)C[C@@]2(C)[C@H]1CC[C@]2(O)C(=O)CO [cortisone shot, cortisone]	six to twelve	
C[C@]12CCC(=O)C=C1CC[C@@H]1[C@@H]2[C@@H](O)C[C@@]2(C)[C@H]1CC[C@]2(O)C(=O)CO [hydrocortisone]		significant cartilage protection
C[C@]12C=CC(=O)C=C1CC[C@H]1[C@@H]3C[C@@H](O)[C@](O)(C(=O)CO)[C@@]3(C)C[C@H](O)[C@@]12F [triamcinolone]		significant cartilage protection
